One assay deals with T1, human AHR (Homo sapiens, UniProt P35869).
T1 sequence (P35869 11-848): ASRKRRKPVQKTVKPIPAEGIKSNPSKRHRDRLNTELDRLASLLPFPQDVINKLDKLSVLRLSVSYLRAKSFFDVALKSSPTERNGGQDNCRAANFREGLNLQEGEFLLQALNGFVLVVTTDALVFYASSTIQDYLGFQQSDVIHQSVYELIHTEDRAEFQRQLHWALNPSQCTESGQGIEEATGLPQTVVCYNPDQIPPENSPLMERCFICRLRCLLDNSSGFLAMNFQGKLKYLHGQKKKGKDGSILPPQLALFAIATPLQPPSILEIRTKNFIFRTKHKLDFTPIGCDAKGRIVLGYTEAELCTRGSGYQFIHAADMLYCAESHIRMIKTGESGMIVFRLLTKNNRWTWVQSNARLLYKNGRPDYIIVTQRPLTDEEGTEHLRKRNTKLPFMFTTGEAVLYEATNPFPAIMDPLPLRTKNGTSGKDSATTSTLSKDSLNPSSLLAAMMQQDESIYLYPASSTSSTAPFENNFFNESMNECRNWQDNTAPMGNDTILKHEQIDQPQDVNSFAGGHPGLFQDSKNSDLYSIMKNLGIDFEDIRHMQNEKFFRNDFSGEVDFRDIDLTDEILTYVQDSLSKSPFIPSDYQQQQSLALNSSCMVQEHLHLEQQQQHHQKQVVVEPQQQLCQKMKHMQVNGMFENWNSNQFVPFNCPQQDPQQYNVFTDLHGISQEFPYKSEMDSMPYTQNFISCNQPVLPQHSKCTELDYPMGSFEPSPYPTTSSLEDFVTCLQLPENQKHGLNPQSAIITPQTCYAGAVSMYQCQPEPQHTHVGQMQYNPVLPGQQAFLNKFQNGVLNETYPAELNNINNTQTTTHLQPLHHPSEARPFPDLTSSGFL
Kind of assay: Human AHR agonist luciferase assay (CYP1A1 promoter Nano-luc reporter in HepG2 cells).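 Further: stably transfected HepG2 clone, DRE-containing 1200 bp promoter region driving Nano-luc, treated 4 to 24 h with 11-point dilutions in tryptophan-free medium, medium-only wells as baseline.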
Conditions: not given
On to `O=C(c1nc(C2CCOC2=O)cs1)c1c[nH]c2cc(F)ccc12` (stereo not drawn) [Compound 1-2], for which the half-maximal effective concentration (EC50) is less than 500 nM.
In turn, `COc1ccc2c(C(=O)c3nc(C4CCOC4=O)cs3)c[nH]c2c1` (stereo not drawn) [Compound 1-3] had a concentration for a half-maximal effect (EC50) of less than 500 nM.
On to `O=C(c1nc(C2CCOC2=O)cs1)c1c[nH]c2ccc(F)cc12` (stereo not drawn) [Compound 1-4], for which the EC50 is less than 500 nM.
The compound `COc1ccc2[nH]cc(C(=O)c3nc(C4CCOC4=O)cs3)c2c1` (stereo not drawn) [Compound 1-5] displayed an EC50 of less than 500 nM.
`O=C(c1nc(C2CCOC2=O)cs1)c1c[nH]c2cc3c(cc12)OCO3` (stereo not drawn) [Compound 1-6]: the EC50 was less than 500 nM.
The compound `O=C(c1nc(C2(O)CCOC2=O)cs1)c1c[nH]c2cc(F)ccc12` (stereo not drawn) [Compound 2-2] displayed an EC50 of less than 500 nM.
On to `COc1ccc2c(C(=O)c3nc(C4(O)CCOC4=O)cs3)c[nH]c2c1` (stereo not drawn) [Compound 2-3], for which the EC50 was less than 500 nM.
The same measure, in the same setting: next, `O=C(c1nc(C2(O)CCOC2=O)cs1)c1c[nH]c2ccccc12` (stereo not drawn) [Compound 2]: less than 500 nM; `O=C(c1nc(C2(Cl)CCOC2=O)cs1)c1c[nH]c2cc(F)ccc12` (stereo not drawn) [Compound 4-2]: less than 500 nM.
As to `O=C(c1nc(C2(Cl)CCOC2=O)cs1)c1c[nH]c2ccccc12` (stereo not drawn) [Compound 4], the EC50 is less than 500 nM.
Compound `COc1ccc2[nH]cc(C(=O)c3nc(C4CCN(C)C4=O)cs3)c2c1` (stereo not drawn) [Compound 7-5] registered an EC50 of less than 500 nM.
As for `CN1CCC(c2csc(C(=O)c3c[nH]c4cc5c(cc34)OCO5)n2)C1=O` (stereo not drawn) [Compound 7-6], the concentration for a half-maximal effect (EC50) was less than 500 nM.
`COC(=O)c1csc(C(=O)c2c[nH]c3ccccc23)n1` [ITE, 2-(1H-indole-3-carbonyl)thiazole-4-carboxylic acid methyl ester, reference compound] showed a half-maximal effective concentration (EC50) of less than 500 nM.

For the next assay, the target named is mouse AHR (Mus musculus, UniProt P30561). Kind of assay: Mouse AHR agonist luciferase assay (6x XRE Nano-luc reporter in Hepa1-6 cells).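 Further: stable Hepa1-6 reporter line, 4–24 h exposure, 11-point serial dilution, Nano-Glo luminescence as fold over medium-only baseline, EC50 from four-parameter fit of activation fold.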
Sequence of mouse AHR (P30561 10-805 limits assumed): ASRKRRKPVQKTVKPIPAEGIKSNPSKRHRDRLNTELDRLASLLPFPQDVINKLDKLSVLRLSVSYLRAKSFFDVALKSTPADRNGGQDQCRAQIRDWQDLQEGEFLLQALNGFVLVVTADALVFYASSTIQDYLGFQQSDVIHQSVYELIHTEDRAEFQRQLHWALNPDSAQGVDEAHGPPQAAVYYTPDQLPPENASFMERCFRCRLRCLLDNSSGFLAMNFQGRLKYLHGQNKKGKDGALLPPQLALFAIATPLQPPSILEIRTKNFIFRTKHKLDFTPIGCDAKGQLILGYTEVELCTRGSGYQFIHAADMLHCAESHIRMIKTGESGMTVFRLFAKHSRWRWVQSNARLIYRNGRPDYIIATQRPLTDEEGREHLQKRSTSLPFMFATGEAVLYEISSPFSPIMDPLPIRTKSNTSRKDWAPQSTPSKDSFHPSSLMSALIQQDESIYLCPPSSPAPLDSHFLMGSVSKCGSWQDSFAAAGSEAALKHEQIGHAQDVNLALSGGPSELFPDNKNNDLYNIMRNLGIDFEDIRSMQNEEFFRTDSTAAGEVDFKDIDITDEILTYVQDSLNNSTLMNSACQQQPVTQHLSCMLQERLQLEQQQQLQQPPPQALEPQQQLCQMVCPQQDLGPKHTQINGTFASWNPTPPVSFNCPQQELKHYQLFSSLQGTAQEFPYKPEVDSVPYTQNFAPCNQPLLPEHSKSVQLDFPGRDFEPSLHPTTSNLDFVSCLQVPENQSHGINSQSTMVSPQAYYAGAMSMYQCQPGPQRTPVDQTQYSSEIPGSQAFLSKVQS
Sequence of mouse AHR (P53762 whole entry partner): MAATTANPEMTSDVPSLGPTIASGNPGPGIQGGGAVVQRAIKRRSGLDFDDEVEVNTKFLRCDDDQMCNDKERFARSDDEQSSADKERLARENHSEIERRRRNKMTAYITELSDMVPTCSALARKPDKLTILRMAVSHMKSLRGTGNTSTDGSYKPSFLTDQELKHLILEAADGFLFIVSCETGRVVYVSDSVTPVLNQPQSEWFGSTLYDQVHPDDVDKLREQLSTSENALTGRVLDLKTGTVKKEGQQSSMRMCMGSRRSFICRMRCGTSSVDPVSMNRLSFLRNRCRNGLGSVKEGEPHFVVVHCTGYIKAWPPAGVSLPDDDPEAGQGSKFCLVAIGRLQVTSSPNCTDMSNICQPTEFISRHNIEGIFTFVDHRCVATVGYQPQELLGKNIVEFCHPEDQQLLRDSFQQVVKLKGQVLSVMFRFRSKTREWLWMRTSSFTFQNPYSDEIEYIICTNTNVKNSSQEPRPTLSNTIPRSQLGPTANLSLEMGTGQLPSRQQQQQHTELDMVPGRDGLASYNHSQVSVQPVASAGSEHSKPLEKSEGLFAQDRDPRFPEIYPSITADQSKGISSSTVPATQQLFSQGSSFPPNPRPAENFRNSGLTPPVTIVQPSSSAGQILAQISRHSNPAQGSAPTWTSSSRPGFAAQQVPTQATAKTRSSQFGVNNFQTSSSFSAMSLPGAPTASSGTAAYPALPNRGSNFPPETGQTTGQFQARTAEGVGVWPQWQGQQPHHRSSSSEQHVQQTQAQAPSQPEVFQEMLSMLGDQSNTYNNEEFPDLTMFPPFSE
Conditions: not given
`O=C(c1nc(C2CCOC2=O)cs1)c1c[nH]c2cc(F)ccc12` (stereo not drawn) [Compound 1-2] gave a concentration for a half-maximal effect (EC50) of less than 100 nM.
`COc1ccc2c(C(=O)c3nc(C4CCOC4=O)cs3)c[nH]c2c1` (stereo not drawn) [Compound 1-3] showed an EC50 of less than 100 nM.
`O=C(c1nc(C2CCOC2=O)cs1)c1c[nH]c2ccc(F)cc12` (stereo not drawn) [Compound 1-4] yielded a 50% effective concentration (EC50) of less than 100 nM.
As to `COc1ccc2[nH]cc(C(=O)c3nc(C4CCOC4=O)cs3)c2c1` (stereo not drawn) [Compound 1-5], the concentration for a half-maximal effect (EC50) is less than 100 nM.
On the same count and under the same terms, next, `O=C(c1nc(C2CCOC2=O)cs1)c1c[nH]c2cc3c(cc12)OCO3` (stereo not drawn) [Compound 1-6]: less than 100 nM.
As to `O=C(c1nc(C2(O)CCOC2=O)cs1)c1c[nH]c2cc(F)ccc12` (stereo not drawn) [Compound 2-2], the EC50 is less than 100 nM.
As for `COc1ccc2c(C(=O)c3nc(C4(O)CCOC4=O)cs3)c[nH]c2c1` (stereo not drawn) [Compound 2-3], the concentration for a half-maximal effect (EC50) is less than 100 nM.
On to `O=C(c1nc(C2(O)CCOC2=O)cs1)c1c[nH]c2ccccc12` (stereo not drawn) [Compound 2], for which the EC50 was less than 100 nM.
The same measure, in the same setting: next, `O=C(c1nc(C2(Cl)CCOC2=O)cs1)c1c[nH]c2cc(F)ccc12` (stereo not drawn) [Compound 4-2]: less than 100 nM.
`O=C(c1nc(C2(Cl)CCOC2=O)cs1)c1c[nH]c2ccccc12` (stereo not drawn) [Compound 4] had a half-maximal effective concentration (EC50) of less than 100 nM.
In turn, `COc1ccc2[nH]cc(C(=O)c3nc(C4CCN(C)C4=O)cs3)c2c1` (stereo not drawn) [Compound 7-5] displayed a 50% effective concentration (EC50) of less than 100 nM.
Turning to `CN1CCC(c2csc(C(=O)c3c[nH]c4cc5c(cc34)OCO5)n2)C1=O` (stereo not drawn) [Compound 7-6], the EC50 was less than 100 nM.
Turning to `COC(=O)c1csc(C(=O)c2c[nH]c3ccccc23)n1` [ITE, 2-(1H-indole-3-carbonyl)thiazole-4-carboxylic acid methyl ester, reference compound], the concentration for a half-maximal effect (EC50) was in the range of 100 to 2000 nM.

For another assay, the target named is T2, rat AHR (Rattus norvegicus, UniProt P41738).
T2 construct: The reporter gene was introduced into a genome of rat hepatoma H-4-II-E cells via lentiviral infection; endogenous in cells; host or cells: H-4-II-E (rat hepatoma) with a lentivirally integrated 6x XRE Nano-luc reporter
T2 sequence (P41738 10-853): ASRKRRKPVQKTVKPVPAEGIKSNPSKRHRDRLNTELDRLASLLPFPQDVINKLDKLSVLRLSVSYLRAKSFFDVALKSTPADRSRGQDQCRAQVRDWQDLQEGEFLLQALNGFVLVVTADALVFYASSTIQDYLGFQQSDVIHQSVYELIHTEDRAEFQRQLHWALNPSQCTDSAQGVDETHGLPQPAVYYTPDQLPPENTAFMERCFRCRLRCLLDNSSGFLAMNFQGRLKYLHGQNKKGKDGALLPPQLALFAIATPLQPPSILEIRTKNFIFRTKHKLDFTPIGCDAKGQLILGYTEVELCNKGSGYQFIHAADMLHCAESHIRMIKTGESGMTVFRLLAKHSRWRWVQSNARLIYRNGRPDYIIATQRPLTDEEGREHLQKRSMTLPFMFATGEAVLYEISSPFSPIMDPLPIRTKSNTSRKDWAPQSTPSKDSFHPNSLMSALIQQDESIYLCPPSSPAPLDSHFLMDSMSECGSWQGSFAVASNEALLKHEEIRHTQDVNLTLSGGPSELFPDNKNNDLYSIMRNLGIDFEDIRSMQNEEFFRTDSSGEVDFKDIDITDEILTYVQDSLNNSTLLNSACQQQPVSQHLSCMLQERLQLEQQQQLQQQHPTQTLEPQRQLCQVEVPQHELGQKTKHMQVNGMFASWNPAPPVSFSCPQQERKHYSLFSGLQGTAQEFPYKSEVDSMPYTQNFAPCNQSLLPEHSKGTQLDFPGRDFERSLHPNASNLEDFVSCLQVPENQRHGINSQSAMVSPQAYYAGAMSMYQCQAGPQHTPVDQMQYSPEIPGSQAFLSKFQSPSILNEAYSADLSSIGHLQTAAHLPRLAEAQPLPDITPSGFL
Nature of the assay: Rat AHR agonist luciferase assay (6x XRE Nano-luc reporter in H-4-II-E cells). The settings on record: AHR activation, rat hepatoma H-4-II-E reporter cells, incubated 4 to 24 hours; read-out: H4IIE EC50. The format is cell-based. From the text:
A lentivirus containing the reporter gene was generated by co-transfecting the transfer plasmid with packaging plasmids into 293T cells using conventional transfection methods in the art, followed by purification. The reporter gene was introduced into a genome of rat hepatoma H-4-II-E cells via lentiviral infection, and cells stably expressing the reporter gene were selected with puromycin for the rat AHR agonist luciferase assay.
For the compound `O=C(c1nc(C2CCOC2=O)cs1)c1c[nH]c2cc(F)ccc12` (stereo not drawn) [Compound 1-2], the concentration for a half-maximal effect (EC50) was no more than 10 nM.
`COc1ccc2c(C(=O)c3nc(C4CCOC4=O)cs3)c[nH]c2c1` (stereo not drawn) [Compound 1-3]: the EC50 is no more than 10 nM.
`O=C(c1nc(C2CCOC2=O)cs1)c1c[nH]c2ccc(F)cc12` (stereo not drawn) [Compound 1-4]: the EC50 is no more than 10 nM.
For `COc1ccc2[nH]cc(C(=O)c3nc(C4CCOC4=O)cs3)c2c1` (stereo not drawn) [Compound 1-5], the concentration giving a half-maximal response (EC50) was no more than 10 nM.
For `O=C(c1nc(C2CCOC2=O)cs1)c1c[nH]c2cc3c(cc12)OCO3` (stereo not drawn) [Compound 1-6], the EC50 is no more than 10 nM.
On the same count and under the same terms, to `O=C(c1nc(C2(O)CCOC2=O)cs1)c1c[nH]c2cc(F)ccc12` (stereo not drawn) [Compound 2-2] belongs no more than 10 nM; to `COc1ccc2c(C(=O)c3nc(C4(O)CCOC4=O)cs3)c[nH]c2c1` (stereo not drawn) [Compound 2-3], no more than 10 nM; to `O=C(c1nc(C2(O)CCOC2=O)cs1)c1c[nH]c2ccccc12` (stereo not drawn) [Compound 2], no more than 10 nM.
The same measure, in the same setting: to `O=C(c1nc(C2(Cl)CCOC2=O)cs1)c1c[nH]c2cc(F)ccc12` (stereo not drawn) [Compound 4-2] belongs no more than 10 nM; to `O=C(c1nc(C2(Cl)CCOC2=O)cs1)c1c[nH]c2ccccc12` (stereo not drawn) [Compound 4], no more than 10 nM.
Regarding `COc1ccc2[nH]cc(C(=O)c3nc(C4CCN(C)C4=O)cs3)c2c1` (stereo not drawn) [Compound 7-5], the concentration giving a half-maximal response (EC50) was in the range of 2000 to 100000 nM.
For the compound `CN1CCC(c2csc(C(=O)c3c[nH]c4cc5c(cc34)OCO5)n2)C1=O` (stereo not drawn) [Compound 7-6], the concentration for a half-maximal effect (EC50) fell in the range of 2000 to 100000 nM.
As to `COC(=O)c1csc(C(=O)c2c[nH]c3ccccc23)n1` [ITE, 2-(1H-indole-3-carbonyl)thiazole-4-carboxylic acid methyl ester, reference compound], the concentration for a half-maximal effect (EC50) was in the range of 10 to 2000 nM.
